# Reference: patent US9556179B2 (BRISTOL-MYERS SQUIBB COMPANY, priority 2012, dated 2017)
# What was measured:
# [1] = target: CK1δ (Homo sapiens (Human), UniProt P48730); test: CK1δ kinase assay (Caliper LABCHIP electrophoretic separation of fluoresceinated peptide substrate and product); assay type: biochemical; conditions: 200 pM enzyme, 50 μM ATP, 22 hours at room temperature
# Procedure, shortened: (§1)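 IC50 values were obtained by non-linear regression from eleven-concentration titrations. The kinase reactions were incubated for 22 hours at room temperature before termination with 35 mM EDTA.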
# [2] = target: CK1ε (Homo sapiens (Human), UniProt P49674); test: CK1ε kinase assay (Caliper LABCHIP electrophoretic separation of fluoresceinated peptide substrate and product); assay type: biochemical; conditions: 200 pM enzyme, 50 μM ATP, 22 hours at room temperature
# Chain of CK1ε (P49674 whole entry): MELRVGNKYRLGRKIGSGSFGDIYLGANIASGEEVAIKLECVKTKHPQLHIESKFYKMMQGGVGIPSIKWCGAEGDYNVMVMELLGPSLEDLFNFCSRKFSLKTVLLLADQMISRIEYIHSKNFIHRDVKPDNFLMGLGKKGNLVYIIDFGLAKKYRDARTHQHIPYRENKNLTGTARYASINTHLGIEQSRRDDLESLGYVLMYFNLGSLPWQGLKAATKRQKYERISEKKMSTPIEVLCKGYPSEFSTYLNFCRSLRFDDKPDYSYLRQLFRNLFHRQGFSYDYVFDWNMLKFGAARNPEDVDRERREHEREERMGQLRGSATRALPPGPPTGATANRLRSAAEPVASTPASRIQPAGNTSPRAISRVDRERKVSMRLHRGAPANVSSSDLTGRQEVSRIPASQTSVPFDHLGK
# Procedure, shortened: as §1
# Chain of CK1δ (P48730 whole entry): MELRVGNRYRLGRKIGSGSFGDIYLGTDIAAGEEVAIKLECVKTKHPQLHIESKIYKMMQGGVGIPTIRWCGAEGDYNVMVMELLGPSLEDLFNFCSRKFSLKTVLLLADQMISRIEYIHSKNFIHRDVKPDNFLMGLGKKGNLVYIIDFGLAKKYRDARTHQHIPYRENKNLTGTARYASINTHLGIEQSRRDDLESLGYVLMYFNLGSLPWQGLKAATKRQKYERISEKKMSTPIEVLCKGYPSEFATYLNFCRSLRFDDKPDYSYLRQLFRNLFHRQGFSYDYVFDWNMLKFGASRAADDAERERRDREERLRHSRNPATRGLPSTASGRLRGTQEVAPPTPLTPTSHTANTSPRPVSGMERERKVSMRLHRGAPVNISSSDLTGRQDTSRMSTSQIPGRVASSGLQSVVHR
Compound,IC50 [1],IC50 [2]
"Cc1cc(C(=O)Nc2cn3nc(-c4c(-c5ccc(F)cc5)nc(C)n4C)ccc3n2)on1 [Compound 382, N-(6-(4-(4-fluorophenyl)-1,2-dimethyl-1H-imidazol-5-yl)imidazo[1,2-b]pyridazin-2-yl)-3-methyl-5-isoxazole-carboxamide]",21.9 nM,103 nM
"O=C(Nc1cn2nc(-c3c(-c4ccc(F)cc4)ncn3-c3ccc(F)cc3)ccc2n1)c1cccc(-c2cccnc2)c1 [Compound 420, N-(6-(1,4-bis(4-Fluorophenyl)-1H-imidazol-5-yl)imidazo[1,2-b]pyridazin-2-yl)-3-(pyridin-3-yl)benzamide]",3.6 nM,18.5 nM
"Cc1nc(-c2cccnc2)sc1C(=O)Nc1cn2nc(-c3c(-c4ccc(F)cc4)nc4ccccn34)ccc2n1 [Compound 218, N-(6-(2-(4-fluorophenyl)imidazo[1,2-a]pyridin-3-yl)imidazo[1,2-b]pyridazin-2-yl)-4-methyl-2-(pyridin-3-yl) thiazole-5-carboxamide]",60.7 nM,178 nM
Cc1nc(-c2ccc(F)cc2)c(-c2ccc3nc(NC(=O)c4cc(-c5ccc(F)cc5)ncn4)cn3n2)n1C [Compound 389],35.2 nM,270 nM
"Cc1nc(-c2ccc(F)cc2)c(-c2ccc3nc(NC(=O)C(C)(C)C)cn3n2)n1C [Compound 414, N-(6-(4-(4-Fluorophenyl)-1,2-dimethyl-1H-imidazol-5-yl)imidazo[1,2-b]pyridazin-2-yl)pivalamide]",0.438 nM,4.35 nM
"Cc1cc(-c2nc(C)n(C)c2-c2ccc3nc(NC(=O)c4ccnc(F)c4)cn3n2)ccc1F [Compound 298, 2-fluoro-N-(6-(4-(4-fluoro-3-methylphenyl)-1,2-dimethyl-1H-imidazol-5-yl)imidazo[1,2-b]pyridazin-2-yl)isonicotinamide]",0.714 nM,5.29 nM
"O=C(Nc1cn2nc(-c3c(-c4ccc(F)cc4)ncn3C3CCN(C[C@H](O)C(F)(F)F)CC3)ccc2n1)c1cncs1 [Compound 118, (S)—N-(6-(4-(4-fluorophenyl)-1-(1-(3,3,3-trifluoro-2-hydroxypropyl)piperidin-4-yl)-1H-imidazol-5-yl)imidazo[1,2-b]pyridazin-2-yl)thiazole-5-carboxamide]",0.194 nM,0.182 nM
"Cc1nc(-c2cccnc2)sc1C(=O)Nc1cn2nc(-c3c(-c4ccc(F)cc4)ncn3C3CCN(CCO)CC3)ccc2n1 [Compound 97, N-(6-(4-(4-fluorophenyl)-1-(1-(2-hydroxyethyl)piperidin-4-yl)-1H-imidazol-5-yl)imidazo [1,2-b]pyridazin-2-yl)-4-methyl-2-(pyridin-3-yl) thiazole-5-carboxamide]",0.034 nM,0.095 nM
"O=C(Nc1cn2nc(-c3c(-c4ccc(F)cc4)nc4ccccn34)ccc2n1)c1cc(F)nc(F)c1 [Compound 169, 2,6-difluoro-N-(6-(2-(4-fluorophenyl)imidazo[1,2-a]pyridin-3-yl)imidazo[1,2-b]pyridazin-2-yl)isonicotinamide]",0.492 nM,5.24 nM
"Cc1nc(-c2ccc(F)cc2)c(-c2ccc3nc(NC(=O)c4cnccn4)cn3n2)n1C [Compound 388, N-(6-(4-(4-fluorophenyl)-1,2-dimethyl-1H-imidazol-5-yl)imidazo[1,2-b]pyridazin-2-yl)pyrazine-2-carboxamide]",7.12 nM,19.4 nM
"COCCN1CCC(n2c(C3CC3)nc(-c3ccc(F)cc3)c2-c2ccc3nc(NC(=O)c4ccnc(F)c4)cn3n2)CC1 [Compound 120, N-(6-(2-cyclopropyl-4-(4-fluorophenyl)-1-(1-(2-methoxyethyl)piperidin-4-yl)-1H-imidazol-5-yl)imidazo[1,2-b]pyridazin-2-yl)-2-fluoroisonicotinamide]",1.52 nM,16.7 nM
"Cc1c(C(=O)Nc2cn3nc(-c4c(-c5ccc(F)cc5)nc(C)n4C)ccc3n2)cccc1-c1cccnc1 [Compound 403, N-(6-(4-(4-Fluorophenyl)-1,2-dimethyl-1H-imidazol-5-yl)imidazo[1,2-b]pyridazin-2-yl)-2-methyl-3-(pyridin-3-yl)benzamide]",0.582 nM,1.61 nM
"O=C(Nc1cn2nc(-c3c(-c4ccc(F)cc4)nc4ccccn34)ccc2n1)c1ccncc1F [Compound 200, 3-fluoro-N-(6-(2-(4-fluorophenyl)imidazo[1,2-a]pyridin-3-yl)imidazo[1,2-b]pyridazin-2-yl) isonicotinamide]",1.78 nM,4.61 nM
"O=C(Nc1cn2nc(-c3c(-c4ccc(F)cc4)ncn3C3CCN(Cc4ccncc4)CC3)ccc2n1)c1ccnc(F)c1 [Compound 16, 2-fluoro-N-(6-(4-(4-fluorophenyl)-1-(1-(pyridin-4-ylmethyl)piperidin-4-yl)-1H-imidazol-5-yl)imidazo[1,2-b]pyridazin-2-yl)isonicotinamide]",0.295 nM,3.06 nM
"CC(C)(C)C(=O)Nc1cn2nc(-c3c(-c4ccc(F)cc4)ncn3Cc3cccnc3)ccc2n1 [Compound 281, N-(6-(4-(4-fluorophenyl)-1-(pyridin-3-ylmethyl)-1H-imidazol-5-yl)imidazo[1,2-b]pyridazin-2-yl)pivalamide]",1.81 nM,7.79 nM
"O=C(Nc1cn2nc(-c3c(-c4ccc(F)cc4)nc4n3CCN(C(=O)NC3CC3)C4)ccc2n1)c1ccnc(F)c1 [Compound 483, N-Cyclopropyl-3-(2-(2-fluoroisonicotinamido)imidazo[1,2-b]pyridazin-6-yl)-2-(4-fluorophenyl)-5,6-dihydroimidazo[1,2-a]pyrazine-7(8H)-carboxamide]",0.4 nM,3.9 nM
"O=C(Nc1cn2nc(-c3c(-c4ccc(F)cc4)nc(C4CC4)n3C3CCN(C(=O)CC(F)(F)F)CC3)ccc2n1)c1ccnc(F)c1 [Compound 127, N-(6-(2-cyclopropyl-4-(4-fluorophenyl)-1-(1-(3,3,3-trifluoropropanoyl)piperidin-4-yl)-1H-imidazol-5-yl)imidazo [1,2-b]pyridazin-2-yl)-2-fluoroisonicotinamide]",1.75 nM,10.1 nM
"Cc1nc(-c2cccnc2)sc1C(=O)Nc1cn2nc(-c3c(-c4ccc(F)cc4)ncn3C3CCN(C(=O)c4ccon4)CC3)ccc2n1 [Compound 101, N-(6-(4-(4-fluorophenyl)-1-(1-(isoxazole-3-carbonyl)piperidin-4-yl)-1H-imidazol-5-yl)imidazo[1,2-b]pyridazin-2-yl)-4-methyl-2-(pyridin-3-yl)thiazole-5-carboxamide]",0.334 nM,1.24 nM
"Cc1cc(C(=O)Nc2cn3nc(-c4c(-c5ccc(F)cc5)nc(C)n4C)ccc3n2)on1 [Compound 379, N-(6-(4-(4-fluorophenyl)-1,2-dimethyl-1H-imidazol-5-yl)imidazo[1,2-b]pyridazin-2-yl)-3-methyl-5-isoxazole-carboxamide]",0.569 nM,4.94 nM
"O=C(Nc1cn2nc(-c3c(-c4ccc(F)cc4)nc4ccccn34)ccc2n1)c1cccc(-c2cncnc2)c1 [Compound 205, N-(6-(2-(4-fluorophenyl)imidazo[1,2-a]pyridin-3-yl)imidazo[1,2-b]pyridazin-2-yl)-3-(pyrimidin-5-yl)benzamide]",2.04 nM,4.35 nM
"O=C(Nc1cn2nc(-c3c(-c4ccc(F)cc4)ncn3C3CC3)ccc2n1)c1ccncc1 [Compound 427, N-(6-(1-Cyclopropyl-4-(4-fluorophenyl)-1H-imidazol-5-yl)imidazo[1,2-b]pyridazin-2-yl)isonicotinamide]",0.7 nM,6.5 nM
